The test addresses T1, ACVR1 (ALK2) R206H (Homo sapiens, UniProt Q04771, R206H).
T1 construct: purchased Thermo Fisher Scientific (Life Technologies) SelectScreen
Nature of the test: SelectScreen LanthaScreen. Format: binding. The note with it: read-out: % displacement. In short, it runs like this:
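Percent values come from Thermo SelectScreen profiling of NU5455, combining activity and binding assays. CSF1R was run in Z'LYTE format at Km app ATP, and CAMK1 in Adapta format with ATP listed at 10.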

T1 sequence (Q04771 21-509 R206H): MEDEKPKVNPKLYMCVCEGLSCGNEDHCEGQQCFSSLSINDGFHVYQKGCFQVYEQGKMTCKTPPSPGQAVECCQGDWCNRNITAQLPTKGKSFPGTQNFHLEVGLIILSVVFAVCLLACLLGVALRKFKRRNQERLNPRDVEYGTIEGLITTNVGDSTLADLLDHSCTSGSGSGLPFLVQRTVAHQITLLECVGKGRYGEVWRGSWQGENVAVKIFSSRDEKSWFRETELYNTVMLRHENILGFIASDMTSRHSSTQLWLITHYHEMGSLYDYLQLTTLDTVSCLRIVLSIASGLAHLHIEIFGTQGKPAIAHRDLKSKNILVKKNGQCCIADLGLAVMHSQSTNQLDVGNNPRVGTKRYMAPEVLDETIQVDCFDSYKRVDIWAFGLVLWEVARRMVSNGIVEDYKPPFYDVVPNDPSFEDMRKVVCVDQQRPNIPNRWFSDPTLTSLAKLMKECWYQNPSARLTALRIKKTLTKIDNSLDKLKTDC

As to `CN(C(=O)CN1CCOCC1)c1ccc2sc3c(-c4cccc5c(=O)cc(N6CC7CCC(C6)O7)oc45)cccc3c2c1` [NU5455], the inhibition at 1 µM amounted to 12.6%.

Values taken from PMC6934184, “Selective DNA-PKcs inhibition extends the therapeutic index of localized radiotherapy and chemotherapy” (The Journal of Clinical Investigation, 2019).
